# Reference: ChEMBL document CHEMBL1201862, “PubChem BioAssay data set” (2004)
#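 Dose response: 5 concentrations. Exposure: 48 h. Format: 96-well plates. Endpoint: linear interpolation; highest concentration if not reached. GI50 marks 50% less growth.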 Calls of active or inactive are those of the source. Cut-off read from the data, not from the text of the source: active = GI50 up to about 1.1 µM and inactive = higher.
# Legend:
# Assay in all cases: growth of human tumour cells (NCI), 48 h
# COLO 205 = system: COLO 205
# SF-539 = system: SF-539
# SN12C = system: SN12C
# UO-31 = system: UO-31
# SNB-19 = system: SNB-19
# SK-MEL-2 = system: SK-MEL-2
# HCT-116 = system: HCT-116
# OVCAR-4 = system: OVCAR-4
# MDA-MB-435 = system: MDA-MB-435
# UACC-257 = system: UACC-257
# NCI-H23 = system: NCI-H23
# M14 = system: M14
# U-251 = system: U-251
# NCI-H522 = system: NCI-H522
# NCI-H460 = system: NCI-H460
# CAKI-1 = system: CAKI-1
# SW-620 = system: SW-620
# CCRF-CEM = system: CCRF-CEM
# HOP-92 = system: HOP-92
# SF-268 = system: SF-268
Structure (SMILES),GI50 (COLO 205),GI50 (SF-539),GI50 (SN12C),GI50 (UO-31),GI50 (SNB-19),GI50 (SK-MEL-2),GI50 (HCT-116),GI50 (OVCAR-4),GI50 (MDA-MB-435),GI50 (UACC-257),GI50 (NCI-H23),GI50 (M14),GI50 (U-251),GI50 (NCI-H522),GI50 (NCI-H460),GI50 (CAKI-1),GI50 (SW-620),GI50 (CCRF-CEM),GI50 (HOP-92),GI50 (SF-268)
NS(=O)(=O)c1ccc(NC(=O)Nc2cccc3ccccc23)cc1,86.9 µM (inactive),23.8 µM (inactive),45.5 µM (inactive),16.1 µM (inactive),21.1 µM (inactive),> 100 µM (inactive),39.8 µM (inactive),42.2 µM (inactive),81.8 µM (inactive),> 100 µM (inactive),34.4 µM (inactive),86.9 µM (inactive),18.3 µM (inactive),19.4 µM (inactive),40.8 µM (inactive),> 100 µM (inactive),44.8 µM (inactive),> 100 µM (inactive),35.6 µM (inactive),19.9 µM (inactive)
N[C@H]1CCCC[C@@H]1N1C(=O)c2ccccc2C1(O)c1ccc(Cl)cc1 (stereo not given in full),3.41 µM (inactive),10.4 µM (inactive),13.7 µM (inactive),11.6 µM (inactive),14 µM (inactive),15 µM (inactive),9.79 µM (inactive),11.2 µM (inactive),6.5 µM (inactive),4.15 µM (inactive),14.9 µM (inactive),9.44 µM (inactive),12.6 µM (inactive),13.8 µM (inactive),11.2 µM (inactive),4.4 µM (inactive),6.3 µM (inactive),2.94 µM (inactive),10.3 µM (inactive),12.4 µM (inactive)
Cc1c(C)n(-c2ccccc2)c2nc([S+](C)[O-])nc([S+](C)[O-])c12 (stereo not given),1.75 µM (inactive),3.85 µM (inactive),8.28 µM (inactive),7.74 µM (inactive),17.1 µM (inactive),4.68 µM (inactive),2.14 µM (inactive),4.85 µM (inactive),3.1 µM (inactive),11.8 µM (inactive),13.9 µM (inactive),2.21 µM (inactive),8.53 µM (inactive),1.89 µM (inactive),18.8 µM (inactive),1.34 µM (inactive),1.79 µM (inactive),1.55 µM (inactive),1.96 µM (inactive),7.14 µM (inactive)
COc1cc2c(cc1OCCCCCOc1cc3c(cc1OC)C(=O)N1CCC[C@H]1CN3)N=C[C@@H]1CCCN1C2=O,4.37 µM (inactive),3.18 µM (inactive),0.509 µM (active),12.3 µM (inactive),20 µM (inactive),3.27 µM (inactive),4.85 µM (inactive),25.6 µM (inactive),6.85 µM (inactive),12.3 µM (inactive),4.8 µM (inactive),2.77 µM (inactive),1.49 µM (inactive),1.36 µM (inactive),3.77 µM (inactive),9.48 µM (inactive),4.25 µM (inactive),0.233 µM (active),17.2 µM (inactive),3.57 µM (inactive)
COC1C(O)C(O[C@H]2CC[C@@]3(C)C(CC[C@@H]4[C@@H]3CC[C@]3(C)[C@@H](C(C)OC5OC(CO)C(O)C(O)C5O)CC[C@]43O)C2)OC(C)C1OC1OC(CO)C(O)C(O)C1O (stereo not given in full),> 100 µM (inactive),> 100 µM (inactive),> 100 µM (inactive),> 100 µM (inactive),> 100 µM (inactive),> 100 µM (inactive),> 100 µM (inactive),> 100 µM (inactive),> 100 µM (inactive),> 100 µM (inactive),> 100 µM (inactive),> 100 µM (inactive),> 100 µM (inactive),> 100 µM (inactive),> 100 µM (inactive),> 100 µM (inactive),> 100 µM (inactive),> 100 µM (inactive),> 100 µM (inactive),> 100 µM (inactive)
COc1cc(OC)c(C/C=C/c2ccccc2)cc1O,22 µM (inactive),16.2 µM (inactive),16 µM (inactive),14.7 µM (inactive),15.9 µM (inactive),19.4 µM (inactive),16.4 µM (inactive),14 µM (inactive),17 µM (inactive),23.6 µM (inactive),17.4 µM (inactive),19 µM (inactive),16.7 µM (inactive),12.6 µM (inactive),17.3 µM (inactive),21.5 µM (inactive),18.9 µM (inactive),22.1 µM (inactive),13.6 µM (inactive),16.7 µM (inactive)
CCOC(=O)c1sc2ncnc(N)c2c1C,19.6 µM (inactive),75.5 µM (inactive),21.4 µM (inactive),82.4 µM (inactive),63.7 µM (inactive),> 100 µM (inactive),30.5 µM (inactive),20.4 µM (inactive),36 µM (inactive),34.4 µM (inactive),70.3 µM (inactive),65 µM (inactive),> 100 µM (inactive),59.3 µM (inactive),> 100 µM (inactive),35.9 µM (inactive),> 100 µM (inactive),62.1 µM (inactive),8.99 µM (inactive),68.5 µM (inactive)
Cc1cc(C)nc(SC(C)C(=O)N/N=C/c2ccc(OCc3ccccc3)cc2)n1 (stereo not given),20.8 µM (inactive),50.8 µM (inactive),31.3 µM (inactive),32.1 µM (inactive),48.5 µM (inactive),21.6 µM (inactive),23.9 µM (inactive),15.7 µM (inactive),26.7 µM (inactive),7.41 µM (inactive),18 µM (inactive),36.8 µM (inactive),17 µM (inactive),15.3 µM (inactive),17.1 µM (inactive),20.5 µM (inactive),39.5 µM (inactive),19.1 µM (inactive),28.6 µM (inactive),40.6 µM (inactive)
Cc1ccc(S(=O)(=O)NNC(=O)Nc2ccc([N+](=O)[O-])cc2)cc1,42.3 µM (inactive),50.7 µM (inactive),97.1 µM (inactive),47 µM (inactive),69.5 µM (inactive),> 100 µM (inactive),26.9 µM (inactive),26.2 µM (inactive),55 µM (inactive),46.5 µM (inactive),36.7 µM (inactive),89.5 µM (inactive),31 µM (inactive),26.5 µM (inactive),23.9 µM (inactive),65.8 µM (inactive),33 µM (inactive),45.3 µM (inactive),43.8 µM (inactive),67.6 µM (inactive)
CCCNC1=C2CC(C)CC(OC)[C@@H](O)[C@H](C)/C=C(\C)C(OC(N)=O)C(OC)/C=C\C=C(/C)C(=O)NC(=CC1=O)C2=O (stereo not given in full),0.0319 µM (active),0.698 µM (active),0.0809 µM (active),2.94 µM (inactive),0.637 µM (active),0.129 µM (active),0.231 µM (active),26.6 µM (inactive),0.274 µM (active),0.0975 µM (active),0.0847 µM (active),0.561 µM (active),0.579 µM (active),0.00678 µM (active),0.0685 µM (active),11.5 µM (inactive),0.0379 µM (active),0.273 µM (active),0.124 µM (active),0.524 µM (active)
